What was measured:
[1] = system: houseflies (Musca domestica); test: Relative toxicity to houseflies, topical drop on thorax; format: in vivo; details: for Relative Toxicity, Houseflies: 5-benzyl-3-furylmethyl (1R)-trans-chrysanthemate = 1000, inverse ratio of LD50, topical, female flies
Experimental: (§1) The toxicity of these new esters was tested by the procedure described in detail in our above mentioned application and the following results were obtained:
(§2) The insecticidal acitivity of the esters of the invention was assessed against houseflies and mustard beetles using the following techniques:
Female flies were treated on the thorax with a one microliter drop of insecticide dissolved in acetone. Two replicates of 15 flies were used at each dose rate and 6 dose rates were used per compound under test. After treatment, the flies were maintained at a temperature of 20° C.±1° and kill was assessed 24 and 48 hours after treatment. LD50 values were calculated in micrograms of insecticide per fly and relative toxicities were calculated from the inverse ratios of the LD50 values. (see Sawicki et al, Bulletin of the World Health Organization, 35,893, (1966) and Sawicki et al, Entomologia and Exp. Appl. 10, 253, (1967)).
(§3) Relative toxicities were calculated by comparison with 5-benzyl-3-furylmethyl(1R)-trans-chrysanthemate which is one of the most toxic chrysanthemate esters known to houseflies and mustard beetles, its toxicity being about 24 times that of allethrin to houseflies and 65 times that of allethrin to mustard beetles.

[2] = system: female flies (houseflies); test: Synergisability with Sesamex, 5 micrograms per fly 3 hours before; format: in vivo, Musca domestica; details: for LD50 Active compound (flies pretreated with synergist): 5 micrograms per fly Sesamex 3 hours before; for Approx. synergist factor: Sesamex, 5 micrograms per fly; for LD 50 active compound only: without synergist
Experimental: The following results were obtained
By repeating the above synergisability test but pretreating flies instead with 5 micrograms per fly of the synergist Sesamex 3 hours before applying the pyrethroid, the following results were obtained: […]

[3] = system: mustard beetles (Phaedon cochleariae Fab); test: Relative toxicity to mustard beetles, topical micro drop; format: in vivo; details: for Relative Toxicity, Mustard Beetles: 5-benzyl-3-furylmethyl (1R)-trans-chrysanthemate = 1000, inverse ratio of LD50, topical, 48 hours
Experimental: as §1, §2
Acetone solutions of the test compound were applied ventrally to adult mustard beetles using a micro drop applicator. The treated insects were maintained for 48 hours after which time kill is assessed. Two replicates of 40 to 50 mustard beetles were used at each dose level and 3 to 4 dose levels were used for each compound. Again, LD50 values were calculated and relative toxicities were calculated for the inverse ratios of LD50 (see Elliott et al, J. Sci. Food Agric. 20, 561, (1969)).
as §3

[4] = Mammalian toxicity in rats; details: rat, in vivo
[5] = Mammalian toxicity in mice; details: mouse, in vivo; oral acute
[6] = system: female flies (houseflies); test: Synergisability with sesamex, 2 μg per fly pretreatment; format: in vivo, Musca domestica; details: for LD 50 active compound + synergist: pretreated with 2 μg. per fly sesamex; for Approx. Synergistic factor: sesamex, 2 μg. per fly; for LD 50 active compound only: untreated flies
Experimental: Female flies were treated on the thorax with a one microliter drop of insecticide dissolved in acetone. Two replicates of 15 flies were used at each dose rate and 6 dose rates were used per compound under test. After treatment, the flies were maintained at a temperature of 20° C.±1° and kill was assessed 24 and 48 hours after treatment. LD50 values were calculated in micrograms of insecticide per fly and relative toxicities were calculated from the inverse ratios of the LD50 values.

[7] = system: American cockroach, Periplaneta americana L.; test: Toxicity relative to bioresmethrin against American cockroach; format: in vivo; details: for Relative Toxicity (American cockroach): Bioresmethrin = 100
female Musca domestica = test: Topical application of pyrethroids alone and with piperonyl butoxide or Tropital; format: in vivo; details: for LD 50 active compound only: alone; for LD50 Active compound + piperonyl butoxide (1:5): with piperonyl butoxide (1:5)
Source text: Topical application of pyrethroids alone and in combination with synergist gave the following LD50 results in micrograms with female Musca domestica: […]

[8] = system: houseflies (M. domestica); test: Insecticidal activity by spraying in a Kearns and March chamber; format: in vivo, Musca domestica; details: for LD50: compound alone, odourless kerosene spray
Experimental: The insecticidal activity of DP 870 against houseflies was tested by spraying M. domestica in a Kearns and March chamber with a solution of a compound in odourless kerosene, and LD50 values calculated. The activity of DP 870 synergised with piperonylbutoxide was also measured and the results compared with the LD50 value for compound P21H of Example 18.

[9] = system: Ephestia kuhniella and Venturia canescens; test: Selective toxicity to Ephestia compared to Venturia (LD50 ratio); format: in vivo; details: for Selectivity (ratio of toxicity to Ephestia compared to Venturia): ratio from relative toxicity (LD50)
Source text: Experiments to compare the relative toxicity (LD50) of compound P39E with certain related compounds have been carried out towards both Ephestia kuhniella and Venturia canescens so that the relative toxicity to the two species can be calculated. […]

[10] = system: Boophilus microplus, Biarra strain; test: Acaricidal activity: inhibition of egg laying of injected engorged female ticks; format: in vivo; details: Rhipicephalus microplus, 336 h, 14 days after injection, read-out: % Inhibition (egg laying ability)
Source text: Acaricidal activity has been measured by injecting solutions of test compound P39E into engorged female ticks, Boophilus microplus, Biarra strain and the ability of the female to lay eggs 14 days after injection determined. The results are exposed as a percent of inhibition of egg laying ability compared to untreated control ticks.

CC1(C)C(C=C(Cl)Cl)C1C(=O)OC(C#N)c1cccc(Oc2ccccc2)c1 (racemic) [Compound P21P, (αRS)-cyano-3-phenoxybenzyl-(1RS)-cis-trans-3-(2,2-dichlorovinyl)-2,2-dimethyl cyclopropane carboxylate]
Relative Toxicity, Houseflies [1]: 1300 | LD50 Active compound (flies pretreated with synergist) [2]: 0.00088 µg | Approx. synergist factor [2]: ~8.3 | LD 50 active compound only [2]: 0.0073 µg | Relative Toxicity, Mustard Beetles [3]: ≥ 5000

CC1(C)[C@H](C=C(Cl)Cl)[C@H]1C(=O)OCc1cccc(Oc2ccccc2)c1 (relative stereo)
LD50 ([4]; po): > 300 mg/kg | LD50 [5]: > 300 mg/kg

C#CCc1ccc(COC(=O)[C@@H]2[C@@H](C=C(Cl)Cl)C2(C)C)o1 (relative stereo)
LD50 ([4]; po): 300 mg/kg | LD50 [5]: ~300 mg/kg

CC1(C)[C@H](C=C(Cl)Cl)[C@H]1C(=O)OCc1coc(Cc2ccccc2)c1 (relative stereo)
LD50 [5]: 100 mg/kg

CC1(C)[C@H](C(=O)OCc2cccc(Oc3ccccc3)c2)[C@@H]1C=C(Cl)Cl (relative stereo) [Compound P21G]
Relative Toxicity, Houseflies [1]: 680 | LD 50 active compound + synergist [6]: 0.00037 μg. per female fly | Approx. Synergistic factor [6]: ~22 | LD 50 active compound only [6]: 0.0083 μg. per female fly | Relative Toxicity, Mustard Beetles [3]: 780

CC(C)=C[C@@H]1[C@@H](C(=O)OCc2coc(Cc3ccccc3)c2)C1(C)C [Bioresmethrin, 5-benzyl-3-furylmethyl (1R)--trans-chrysanthemate, reference compound]
toxicity, times that of allethrin, to houseflies ([1]; relative to allethrin): about 24 times | LD50 ([4]; iv): 340 mg/kg | LD50 ([4]; po): > 8000 mg/kg | LD50 (American cockroach) ([7]; in vivo): 2.5 μg/insect | Approx. Synergistic factor [6]: ~9.4 | toxicity, times that of allethrin, to mustard beetles ([3]; relative to allethrin): ~65 times

CC/C=C\[C@@H]1[C@@H](C(=O)OCc2coc(Cc3ccccc3)c2)C1(C)C [Compound A]
Relative Toxicity, Houseflies [1]: 1700 | LD50 ([4]; iv): 120 mg/kg | LD50 ([4]; po): 800 to 1000 mg/kg | LD 50 active compound + synergist [6]: 0.00033 μg. per female fly | Approx. Synergistic factor [6]: ~13 | LD 50 active compound only [6]: 0.0042 μg. per female fly | Relative Toxicity, Mustard Beetles [3]: 2000 | LD 50 active compound only (female Musca domestica): 0.034 µg | LD50 Active compound + piperonyl butoxide (1:5) (female Musca domestica): 0.015 µg

CC1(C)C(C=C(Cl)Cl)C1C(=O)OCc1cccc(Oc2ccccc2)c1 (centres unmarked) [Compound P21H]
Relative Toxicity, Houseflies [1]: 660 | LD50 [8]: 0.022 μg/female | Relative Toxicity, Mustard Beetles [3]: 740 | LD 50 active compound only (female Musca domestica): 0.031 µg | LD50 Active compound + Tropital (1:5) (female Musca domestica; with Tropital (1:5)): 0.019 µg | LD50 Active compound + piperonyl butoxide (1:5) (female Musca domestica): 0.018 µg

CC1(C)[C@H](C(=O)OCc2cccc(Oc3ccccc3)c2)[C@@H]1C=C(Cl)Cl [Compound P29L]
Selectivity (ratio of toxicity to Ephestia compared to Venturia) [9]: 2.3 | Relative Toxicity (American cockroach) [7]: 2,100

CC1(C)[C@H](C=C(Cl)Cl)[C@H]1C(=O)OCc1cccc(Oc2ccccc2)c1 [Compound P29M, 3-Phenoxybenzyl-(1R)--trans-2,2-dimethyl-3-(2,2-dichlorovinyl)cyclopropanecarboxylate]
Relative Toxicity, Houseflies [1]: 740 | Selectivity (ratio of toxicity to Ephestia compared to Venturia) [9]: 2.8 | Relative Toxicity (American cockroach) [7]: 800

CC1(C)[C@H](C(=O)OC(C#N)c2cccc(C(=O)c3ccccc3)c2)[C@@H]1C=C(Br)Br (stereo partly drawn) [Compound P39E, (αRS)-cyano-3-benzoylbenzyl(1R)cis-2,2-dimethyl-3-(2,2-dibromovinyl)-cyclopropane carboxylate]
Relative Toxicity, Houseflies [1]: 330 | selectivity in words ([9]; Ephestia over Venturia): very marked and quite unexpected selectivity | Selectivity (ratio of toxicity to Ephestia compared to Venturia) [9]: 7.9 | Relative Toxicity, Mustard Beetles [3]: 2200 | inhibition at 100 µg/mL ([10]; 0.1 mg/ml): 0% | inhibition at 1000 µg/mL ([10]; 1 mg/ml): 90% | inhibition at 10000 µg/mL ([10]; 10 mg/ml): 100%

CC1(C)[C@H](C=C(F)F)[C@H]1C(=O)OCN1C(=O)C2=C(CCCC2)C1=O [DP 870]
LD50 [8]: 0.09 μg/female | LD50, plus piperonyl-butoxide ([8]; plus piperonyl butoxide (1:5 w/w)): 0.04 μg/female

CC1(C)C(C=C(Br)Br)C1C(=O)OC(C#N)c1cccc(Oc2ccccc2)c1 [P29B (crystalline isomer), (αS)-cyano-3-phenoxybenzyl(1R)cis-2,2-dimethyl-3-(2,2-dibromovinyl)cyclopropane carboxylate]
Relative Toxicity, Houseflies [1]: 23000 | Selectivity (ratio of toxicity to Ephestia compared to Venturia) [9]: 3.6 | LD50 Active compound (flies pretreated with synergist) [2]: 0.00023 µg | Approx. synergist factor [2]: ~7 | LD 50 active compound only [2]: 0.0016 µg | Relative Toxicity, Mustard Beetles [3]: 14000
